Values joined by “and” are separate entries in the source; they are usually repeats but may differ in a detail not shown here. Identical values can stand only once. Like-named read-outs stand apart in the source and are kept apart here.
Legend:
[1] = system: cyclin K–eGFP degradation reporter; assay: Cyclin K reporter stability analysis (dual-color cyclin K–eGFP reporter); assay type: cell-based, human
Summary of the method: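 First, reporter-bearing HEK293T–Cas9 cells are plated at 1 × 10^6 ml^−1. Next, drug or vehicle is added for 5 h. Finally, geometric-mean eGFP and mCherry signals of round, mCherry-positive cells are measured cytometrically, and their ratio is referenced to the DMSO average.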

HEK293T cells = assay: Drug sensitivity assay (CellTiter-Glo viability) with or without MLN4924 pretreatment; assay type: cell-based, human; conditions: Supplementary Table 2
Summary of the method: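 HEK293T–Cas9 cells at 0.15 × 10^6 ml^−1 were treated with DMSO or 100 nM MLN4924 before plating. Test drugs were added 2 h later and exposure lasted 3 days. Viability was read by CellTiter-Glo luminescence and expressed relative to DMSO controls.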

CDK12–cyclin K = CDK12–cyclin K (Homo sapiens, UniProt Q9NYV4); assay: Lanthascreen kinase binding assay, CDK12; conditions: duplicates
Chain of CDK12–cyclin K (Q9NYV4 713-1052): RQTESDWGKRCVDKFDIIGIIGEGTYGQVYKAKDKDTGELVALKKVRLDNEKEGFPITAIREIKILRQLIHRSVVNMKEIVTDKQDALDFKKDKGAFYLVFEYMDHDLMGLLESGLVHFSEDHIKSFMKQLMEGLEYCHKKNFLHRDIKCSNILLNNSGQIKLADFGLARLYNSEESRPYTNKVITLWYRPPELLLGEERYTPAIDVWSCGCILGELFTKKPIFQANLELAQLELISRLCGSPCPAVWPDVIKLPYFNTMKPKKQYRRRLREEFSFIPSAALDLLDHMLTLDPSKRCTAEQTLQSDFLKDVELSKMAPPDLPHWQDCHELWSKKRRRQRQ
Chain of CDK12–cyclin K (O75909 1-267 partner limits assumed): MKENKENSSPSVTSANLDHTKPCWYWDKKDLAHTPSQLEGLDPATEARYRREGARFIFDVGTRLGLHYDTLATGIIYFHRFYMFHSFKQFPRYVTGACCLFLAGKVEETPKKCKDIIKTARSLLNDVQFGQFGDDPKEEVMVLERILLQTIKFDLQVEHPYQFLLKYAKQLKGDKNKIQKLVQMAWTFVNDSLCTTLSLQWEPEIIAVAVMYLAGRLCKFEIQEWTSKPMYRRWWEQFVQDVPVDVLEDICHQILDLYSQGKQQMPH
Protocol: (§1) Lanthascreen experiments were performed using commercially available reagents (Thermo Fisher) and according to the manufacturer’s instructions.

CDK9–cyclin T = target: T1, CDK9–cyclin T (Homo sapiens, UniProt P50750); assay: Lanthascreen kinase binding assay, CDK9; conditions: Supplementary Table 2; read-out: Lanthascreen IC50 [nM] CDK9
T1 construct: purchased Thermo Fisher
T1 sequence (P50750 whole entry): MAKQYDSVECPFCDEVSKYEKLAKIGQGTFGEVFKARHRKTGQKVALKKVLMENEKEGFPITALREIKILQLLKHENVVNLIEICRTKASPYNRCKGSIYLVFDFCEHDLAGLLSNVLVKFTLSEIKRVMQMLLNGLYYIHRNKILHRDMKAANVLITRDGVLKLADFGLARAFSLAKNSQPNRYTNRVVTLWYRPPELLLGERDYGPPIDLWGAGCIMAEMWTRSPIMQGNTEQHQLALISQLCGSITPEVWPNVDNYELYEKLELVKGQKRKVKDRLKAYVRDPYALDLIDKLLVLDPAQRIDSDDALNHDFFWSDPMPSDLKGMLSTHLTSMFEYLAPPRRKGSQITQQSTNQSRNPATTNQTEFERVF
T1 sequence (O60563 whole entry partner): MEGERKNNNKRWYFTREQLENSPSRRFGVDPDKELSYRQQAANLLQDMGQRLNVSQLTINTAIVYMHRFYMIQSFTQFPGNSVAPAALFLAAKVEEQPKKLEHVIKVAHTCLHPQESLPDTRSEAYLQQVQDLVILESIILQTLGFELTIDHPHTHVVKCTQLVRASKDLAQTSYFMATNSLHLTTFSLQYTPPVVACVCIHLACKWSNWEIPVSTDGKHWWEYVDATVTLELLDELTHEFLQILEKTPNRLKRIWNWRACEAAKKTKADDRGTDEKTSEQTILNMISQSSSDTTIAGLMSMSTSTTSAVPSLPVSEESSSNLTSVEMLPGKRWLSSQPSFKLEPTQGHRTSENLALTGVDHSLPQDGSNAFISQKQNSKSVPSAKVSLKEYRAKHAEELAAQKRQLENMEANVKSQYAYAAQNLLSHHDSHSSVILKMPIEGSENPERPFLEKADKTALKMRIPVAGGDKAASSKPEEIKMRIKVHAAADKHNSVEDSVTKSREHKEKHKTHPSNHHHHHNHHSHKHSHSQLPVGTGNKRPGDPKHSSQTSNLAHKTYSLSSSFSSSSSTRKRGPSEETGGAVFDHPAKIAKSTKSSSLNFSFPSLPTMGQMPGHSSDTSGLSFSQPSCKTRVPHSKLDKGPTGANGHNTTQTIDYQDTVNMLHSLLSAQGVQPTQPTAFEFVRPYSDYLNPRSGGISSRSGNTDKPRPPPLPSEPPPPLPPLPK
Protocol: as §1

CDK2–cyclin A = target: T2, CDK2–cyclin A (Homo sapiens, UniProt P24941); assay: Lanthascreen kinase binding assay, CDK2
T2 construct: purchased Thermo Fisher
Protocol: as §1

DC50 ([1]; Supplementary Fig. 4, HEK293T cycKeGFP reporter, 5h, n=2, read-out: DC50 printed on reporter plot): 39 nM
DC50 ([1]; source data sheet correlations, read-out: DC50): 14 nM
Lanthascreen raw signal, sheet CDK12 (CDK12–cyclin K; compound 0.038147 nM, series r13): 0.01046 and 0.009983
Lanthascreen raw signal, sheet CDK12 (CDK12–cyclin K; compound 0.038147 nM, series r37): 0.01351 and 0.01182
Lanthascreen raw signal, sheet CDK12 (CDK12–cyclin K; compound 0.038147 nM, series r49): 0.007647 and 0.00729
Lanthascreen raw signal, sheet CDK12 (CDK12–cyclin K; compound 0.152588 nM, series r13): 0.009614 and 0.01041
Lanthascreen raw signal, sheet CDK12 (CDK12–cyclin K; compound 0.152588 nM, series r37): 0.01248 and 0.01201
Lanthascreen raw signal, sheet CDK12 (CDK12–cyclin K; compound 0.152588 nM, series r49): 0.009969 and 0.01054
Lanthascreen raw signal, sheet CDK12 (CDK12–cyclin K; compound 0.610352 nM, series r13): 0.01066 and 0.01021
Lanthascreen raw signal, sheet CDK12 (CDK12–cyclin K; compound 0.610352 nM, series r37): 0.01219 and 0.01189
Lanthascreen raw signal, sheet CDK12 (CDK12–cyclin K; compound 0.610352 nM, series r49): 0.01058 and 0.01056
Lanthascreen raw signal, sheet CDK12 (CDK12–cyclin K; compound 1.02544 nM, series r1): 0.008952 and 0.009485
Lanthascreen raw signal, sheet CDK12 (CDK12–cyclin K; compound 3.15521 nM, series r1): 0.008128 and 0.008332
Lanthascreen raw signal, sheet CDK12 (CDK12–cyclin K; compound 9.46563 nM, series r1): 0.008981 and 0.006574
Lanthascreen raw signal, sheet CDK12 (CDK12–cyclin K; compound 9.76563 nM, series r13): 0.009284 and 0.009045
Lanthascreen raw signal, sheet CDK12 (CDK12–cyclin K; compound 9.76563 nM, series r37): 0.009426 and 0.01016
Lanthascreen raw signal, sheet CDK12 (CDK12–cyclin K; compound 9.76563 nM, series r49): 0.009267 and 0.008766
Lanthascreen raw signal, sheet CDK12 (CDK12–cyclin K; compound 31.5521 nM, series r1): 0.007535 and 0.008876
Lanthascreen raw signal, sheet CDK12 (CDK12–cyclin K; compound 39.0625 nM, series r13): 0.008439 and 0.008567
Lanthascreen raw signal, sheet CDK12 (CDK12–cyclin K; compound 39.0625 nM, series r37): 0.009028 and 0.008999
Lanthascreen raw signal, sheet CDK12 (CDK12–cyclin K; compound 39.0625 nM, series r49): 0.00795 and 0.007253
Lanthascreen raw signal, sheet CDK12 (CDK12–cyclin K; compound 99.3891 nM, series r1): 0.006758 and 0.007046
Lanthascreen raw signal, sheet CDK12 (CDK12–cyclin K; compound 156.25 nM, series r13): 0.008038 and 0.008664
Lanthascreen raw signal, sheet CDK12 (CDK12–cyclin K; compound 156.25 nM, series r37): 0.006404 and 0.007018
Lanthascreen raw signal, sheet CDK12 (CDK12–cyclin K; compound 156.25 nM, series r49): 0.006482 and 0.006079
Lanthascreen raw signal, sheet CDK12 (CDK12–cyclin K; compound 315.521 nM, series r1): 0.006236 and 0.005797
Lanthascreen raw signal, sheet CDK12 (CDK12–cyclin K; compound 625 nM, series r13): 0.008328 and 0.007759
Lanthascreen raw signal, sheet CDK12 (CDK12–cyclin K; compound 625 nM, series r37): 0.006628 and 0.006561
Lanthascreen raw signal, sheet CDK12 (CDK12–cyclin K; compound 625 nM, series r49): 0.005855 and 0.00595
Lanthascreen raw signal, sheet CDK12 (CDK12–cyclin K; compound 2500 nM, series r13): 0.007658 and 0.007398
Lanthascreen raw signal, sheet CDK12 (CDK12–cyclin K; compound 2500 nM, series r37): 0.006178 and 0.006049
Lanthascreen raw signal, sheet CDK12 (CDK12–cyclin K; compound 2500 nM, series r49): 0.005776 and 0.005723
Lanthascreen raw signal, sheet CDK12 (CDK12–cyclin K; compound 3155.21 nM, series r1): 0.006081 and 0.005159
Lanthascreen raw signal, sheet CDK12 (CDK12–cyclin K; compound 10000 nM, series r13): 0.007533 and 0.00783
Lanthascreen raw signal, sheet CDK12 (CDK12–cyclin K; compound 10000 nM, series r37): 0.005313 and 0.005643
Lanthascreen raw signal, sheet CDK12 (CDK12–cyclin K; compound 10000 nM, series r49): 0.005957 and 0.005417
Lanthascreen raw signal, sheet CDK12 (CDK12–cyclin K; compound 10002 nM, series r1): 0.004606 and 0.00667
IC50 (CDK9–cyclin T): 3660 nM
Lanthascreen signal, sheet CDK2 (CDK2–cyclin A; Compound 0.038147 nM, raw replicates, experiment r13-r23): 0.0127 and 0.01284
Lanthascreen signal, sheet CDK2 (CDK2–cyclin A; Compound 0.038147 nM, raw replicates, experiment r36-r46): 0.01329 and 0.01256
Lanthascreen signal, sheet CDK2 (CDK2–cyclin A; Compound 0.038147 nM, raw replicates, experiment r48-r58): 0.01292 and 0.01236
Lanthascreen signal, sheet CDK2 (CDK2–cyclin A; Compound 0.152588 nM, raw replicates, experiment r13-r23): 0.01305 and 0.01264
Lanthascreen signal, sheet CDK2 (CDK2–cyclin A; Compound 0.152588 nM, raw replicates, experiment r36-r46): 0.01299 and 0.01282
Lanthascreen signal, sheet CDK2 (CDK2–cyclin A; Compound 0.152588 nM, raw replicates, experiment r48-r58): 0.01645 and 0.0151
Lanthascreen signal, sheet CDK2 (CDK2–cyclin A; Compound 0.610352 nM, raw replicates, experiment r13-r23): 0.01296 and 0.01232
Lanthascreen signal, sheet CDK2 (CDK2–cyclin A; Compound 0.610352 nM, raw replicates, experiment r36-r46): 0.01373 and 0.01242
Lanthascreen signal, sheet CDK2 (CDK2–cyclin A; Compound 0.610352 nM, raw replicates, experiment r48-r58): 0.01563 and 0.01504
Lanthascreen signal, sheet CDK2 (CDK2–cyclin A; Compound 1.02544 nM, raw replicates, experiment r1-r11): 0.01131 and 0.01009
Lanthascreen signal, sheet CDK2 (CDK2–cyclin A; Compound 3.15521 nM, raw replicates, experiment r1-r11): 0.009228 and 0.009357
Lanthascreen signal, sheet CDK2 (CDK2–cyclin A; Compound 4.57247 nM, experiment r25-r34): 0.01614
Lanthascreen signal, sheet CDK2 (CDK2–cyclin A; Compound 9.76563 nM, raw replicates, experiment r13-r23): 0.01326 and 0.01312
Lanthascreen signal, sheet CDK2 (CDK2–cyclin A; Compound 9.76563 nM, raw replicates, experiment r36-r46): 0.01252 and 0.01318
Lanthascreen signal, sheet CDK2 (CDK2–cyclin A; Compound 9.76563 nM, raw replicates, experiment r48-r58): 0.01463 and 0.01476
Lanthascreen signal, sheet CDK2 (CDK2–cyclin A; Compound 9.76563 nM, raw replicates, experiment r60-r70): 0.02088 and 0.02079 and 0.02078
Lanthascreen signal, sheet CDK2 (CDK2–cyclin A; Compound 13.7174 nM, experiment r25-r34): 0.01619
Lanthascreen signal, sheet CDK2 (CDK2–cyclin A; Compound 39.0625 nM, raw replicates, experiment r13-r23): 0.01273 and 0.01299
Lanthascreen signal, sheet CDK2 (CDK2–cyclin A; Compound 39.0625 nM, raw replicates, experiment r36-r46): 0.01285 and 0.01213
Lanthascreen signal, sheet CDK2 (CDK2–cyclin A; Compound 39.0625 nM, raw replicates, experiment r48-r58): 0.01551 and 0.01552
Lanthascreen signal, sheet CDK2 (CDK2–cyclin A; Compound 39.0625 nM, raw replicates, experiment r60-r70): 0.01951 and 0.02081 and 0.02075
Lanthascreen signal, sheet CDK2 (CDK2–cyclin A; Compound 41.1523 nM, experiment r25-r34): 0.01684
Lanthascreen signal, sheet CDK2 (CDK2–cyclin A; Compound 123.457 nM, experiment r25-r34): 0.01665
Lanthascreen signal, sheet CDK2 (CDK2–cyclin A; Compound 156.25 nM, raw replicates, experiment r13-r23): 0.01317 and 0.01374
Lanthascreen signal, sheet CDK2 (CDK2–cyclin A; Compound 156.25 nM, raw replicates, experiment r36-r46): 0.01372 and 0.0133
Lanthascreen signal, sheet CDK2 (CDK2–cyclin A; Compound 156.25 nM, raw replicates, experiment r48-r58): 0.01549 and 0.01505
Lanthascreen signal, sheet CDK2 (CDK2–cyclin A; Compound 156.25 nM, raw replicates, experiment r60-r70): 0.01961 and 0.02092 and 0.0201
Lanthascreen signal, sheet CDK2 (CDK2–cyclin A; Compound 370.37 nM, experiment r25-r34): 0.01637
Lanthascreen signal, sheet CDK2 (CDK2–cyclin A; Compound 625 nM, raw replicates, experiment r13-r23): 0.0132 and 0.01347
Lanthascreen signal, sheet CDK2 (CDK2–cyclin A; Compound 625 nM, raw replicates, experiment r36-r46): 0.01352 and 0.01293
Lanthascreen signal, sheet CDK2 (CDK2–cyclin A; Compound 625 nM, raw replicates, experiment r48-r58): 0.01526 and 0.01348
Lanthascreen signal, sheet CDK2 (CDK2–cyclin A; Compound 625 nM, raw replicates, experiment r60-r70): 0.01884 and 0.01787 and 0.01937
Lanthascreen signal, sheet CDK2 (CDK2–cyclin A; Compound 2500 nM, raw replicates, experiment r13-r23): 0.01229 and 0.01217
Lanthascreen signal, sheet CDK2 (CDK2–cyclin A; Compound 2500 nM, raw replicates, experiment r36-r46): 0.01331 and 0.01286
Lanthascreen signal, sheet CDK2 (CDK2–cyclin A; Compound 2500 nM, raw replicates, experiment r48-r58): 0.01476 and 0.01465
Lanthascreen signal, sheet CDK2 (CDK2–cyclin A; Compound 2500 nM, raw replicates, experiment r60-r70): 0.01706 and 0.01739 and 0.01756
Lanthascreen signal, sheet CDK2 (CDK2–cyclin A; Compound 3155.21 nM, raw replicates, experiment r1-r11): 0.009677 and 0.009716
Lanthascreen signal, sheet CDK2 (CDK2–cyclin A; Compound 3333.33 nM, experiment r25-r34): 0.01493
Lanthascreen signal, sheet CDK2 (CDK2–cyclin A; Compound 10000 nM, experiment r25-r34): 0.01253
Lanthascreen signal, sheet CDK2 (CDK2–cyclin A; Compound 10000 nM, raw replicates, experiment r13-r23): 0.01083 and 0.01088
Lanthascreen signal, sheet CDK2 (CDK2–cyclin A; Compound 10000 nM, raw replicates, experiment r36-r46): 0.01118 and 0.01139
Lanthascreen signal, sheet CDK2 (CDK2–cyclin A; Compound 10000 nM, raw replicates, experiment r48-r58): 0.01493 and 0.01454
Lanthascreen signal, sheet CDK2 (CDK2–cyclin A; Compound 10000 nM, raw replicates, experiment r60-r70): 0.01597 and 0.01433 and 0.01526
Lanthascreen signal, sheet CDK2 (CDK2–cyclin A; Compound 10002 nM, raw replicates, experiment r1-r11): 0.009692 and 0.009444
IC50 (CDK2–cyclin A; Lanthascreen, average, Extended Data Fig. 8, read-out: CDK2 IC50): > 10000 nM
IC50 (CDK2–cyclin A; Supplementary Table 2, read-out: Lanthascreen IC50 [nM] CDK2): > 10000 nM
Compound: Cn1cc(-n2cnc3c(NCc4nc5cc(Cl)c(Cl)cc5[nH]4)nc(N4CCOCC4)nc32)cn1 [SR-4835]
EC50 (HEK293T cells; Homo sapiens, HEK-293T, HEK293T viability, 72 h, compound alone, read-out: Cellular assays EC50): 42 nM
Toxicity rescue (HEK293T cells; MLN4924-mediated cytotoxicity rescue, 10 µM used where n.d.): 645%

Reference: article PMC10746543, “Design principles for cyclin K molecular glue degraders” (Nature Chemical Biology, 2023)
